Measured values from patent US20250027086A1, “COMPOSITIONS AND METHODS FOR TREATMENT OF CANCERS USING MODIFIED siRNA-GEM AGENTS” (Sirnaomics, Inc., priority 2022, published 2025).

What was measured:
[1] = tested on: HT1376, HTB-9, N87 and OVCAR-3 cell lines; assay: Cell viability in urinary bladder, gastric and ovarian cancer cell lines; type: cell-based; conditions: HT1376, HTB-9, N87, OVCAR-3; FIGS. 9-10
Method: (§1) MIA PaCa-2, […], LS180, HT1376, HT29, H358, H1299, OVCAR-3, HTB-9 and Panc 10.05 cells were obtained from ATCC (Rockville, MD). MiaPaCa cells were cultured in DMEM medium supplemented with 10% FBS. H358, H1299, HTB-9, N87 and Panc 10.05 cells were cultured in DMEM/10% FBS; LS180 and HT1376 in EMEM/10% FBS; HT29 cells in McCoy5A/10% FBS; OVCAR-3 cells were incubated in RPMI/20% FBS. All cells were maintained at 37 degrees C. in an atmosphere containing 5% CO^2.
The day before transfection, cells were seeded in a 384-well plate at an optimal density of between 300 and 800 cells/well. […]
Ninety-six hours following the addition of GEM or transfection mixtures, the number of viable cells was determined with CellTiter-Glo®-2.0 reagent (Promega, Madison, WI) by measuring luminescent signal using a Cytation 5 plate reader (BioTek Inc, Winooski, VT). […]
Using the same or similar experimental condition as are described above in Example 1, the effects of PGN7 (SEQ. ID No. 9-10), Wee1 (SEQ. ID No. 13), BCLxL #5 (SEQ. ID No. 14) or the PGN7+Wee1, or PGN+BCLxL combinations were evaluated and are shown in HT1376 (400 cells/well) and HTB-9 (800 cells/well) urinary bladder cancer cell lines, N87 (600 cells/well) gastric cancer cell line, and OVCAR-3 (800 cells/well) ovarian cancer line in FIGS. 11 (a)-(d). […]

[2] = tested on: pancreatic, lung and colon cancer cell lines; assay: Cell viability in pancreatic, lung and colon cancer cell lines; type: cell-based; conditions: single siRNA against non-silencing control; pancreatic, lung, colon; FIG. 6
Method: as §1
The day before transfection, cells were seeded in a 384-well plate at an optimal density of between 300 and 800 cells/well. The next day, ten 3-fold serial dilutions of single, modified-backbone siRNAs or PGN6/PGN7 siRNA and Gemcitabine (GEM) mixed with siRNAs: Wee1 #7, KRAS #1, MCL1 #3 or DM2-P47 siRNAs at 1:1 ratio were prepared and combined with diluted Lipofectamine RNAiMAX (Life Technologies, Carlsbad, CA). Within 20 minutes, 10 μl of the transfection mixtures were added to the cells in a 40 μL medium. The final concentrations of siRNAs or Gemcitabine in the wells ranged from 100 nM to 0.002 nM.
Ninety-six hours following the addition of GEM or transfection mixtures, the number of viable cells was determined with CellTiter-Glo®-2.0 reagent (Promega, Madison, WI) by measuring luminescent signal using a Cytation 5 plate reader (BioTek Inc, Winooski, VT). The treatment group (n=4) mean (±SD) was compared to those of non-treated controls and were reported as relative cell viability.
Using the same experimental conditions as are described above in Example 1, the efficacy on cell viability was evaluated for PGN6 (SEQ. ID Nos. 7-8), with and without lipofentamine (“lipo”) in three types of cancer cell lines. FIG. 3 (a)-(c) show the effects of PGN6, with and without lipo on cell viability at increasing siRNA levels in pancreatic cancer cell lines. FIG. 4 (a)-(b) similarly show the effects of these variants on cell viability in lung cancer cell lines; FIG. 5 (a)-(b) show the effects of these variants on cell viability in colon cancer cell lines. All data are shown as mean±SD. […]
Using the same experimental conditions as are described above in Example 1, the efficacy of STD1 (SEQ. ID Nos. 1-2), PGN6 (SEQ. ID Nos. 7-8) and PGN7 (SEQ. ID Nos. 9-10) were evaluated in three types of cancer cell lines. […]
Using the same experimental conditions as are described above in Example 1, the efficacy of PGN7 (SEQ. ID No. 9-10) alone and its combination with WEE1 #7 (SEQ. ID No. 13) was evaluated in three types of cancer cell lines. […]
Using the same experimental conditions as are described above in Example 1, the efficacy of PGN7 (SEQ. ID No. 9-10) and the combination of BCLxL #5 (SEQ. ID No. 14) and PGN7 was evaluated in three types of cancer cell lines. […]

Substance: PGN7: modified siRNA-GEM RNAi agent (SEQ. ID No. 9-10): sense 5′-AAGAAAgAgau[GEM]uGuAu[GEM]AAu-3′; antisense 5′-AuUGAuACAGAuCuCuUuCuU[GEM][GEM]dTdT-3′ (sense AAGAAAGAGATCTGTATCAAT; antisense ATTGATACAGATCTCTTTCTTCCTT; GEM modifications; 2'-modified bases; dTdT overhang; modified_base 1 OTHER; 2'-O-methyl modified nucleotide; modified_base 2 OTHER; modified_base 3 OTHER; modified_base 4 OTHER; modified_base 5 OTHER; modified_base 6 OTHER; modified_base 7 OTHER; 2'-fluoro modified nucleotide; modified_b; 2'-O-me)
- efficacy on cell viability [1]: significant efficacy
- reduction of cell viability [2]: effective in reducing cell viability
